Consider 34 molecules from patent US9840510B1, “Pyrazolo[1,5-a]pyrimidinyl carboxamide compounds and their use in the treatment of medical disorders” (Lysosomal Therapeutics Inc., priority 2016, dated 2017).

Values after ≈ are worked out from the molar mass of the structure shown.

In general, solubility refers to the dissolved amount per volume that the medium holds. High values mean a readily soluble substance, low ones a poorly soluble substance.

The data set can be described thus: Compound solubility in water. In kind it is physicochemical.
As for `Cc1cc(C)n2ncc(C(=O)N[C@@H](C)C3CC3)c2n1` [III-1], the concentration in solution (solubility) came to 27 µg/mL (≈ 105 µM).
Then `Cc1cc(C)n2ncc(C(=O)NC(C)(C)C3CC3)c2n1` [III-2], with 27.4 µg/mL (≈ 101 µM); and `Cc1cc(C)n2ncc(C(=O)N[C@H](C)C3CCCCC3)c2n1` [III-3], with 8.7 µg/mL (≈ 29 µM).
To `Cc1cc(C)n2ncc(C(=O)N[C@@H](C)C3CCCCC3)c2n1` [III-4] belongs 16.1 µg/mL (≈ 53.6 µM).
To `Cc1cc(C)n2ncc(C(=O)NC(CC(C)C)C3CC3)c2n1` (stereo not shown) [III-5] belongs 25.7 µg/mL (≈ 85.6 µM); to `CNc1cc(C)n2ncc(C(=O)N[C@@H](C)C3CC3)c2n1` [III-6], 23.8 µg/mL (≈ 87.1 µM); to `Cc1cc(-c2ccc(F)cc2)nc2c(C(=O)N[C@@H](C)C3CC3)cnn12` [III-7], 1.6 µg/mL (≈ 4.73 µM).
With `Cc1cc(-c2ccc(F)cc2)n2ncc(C(=O)N[C@@H](C)C3CC3)c2n1` [III-8], the solubility came to 0.5 µg/mL (≈ 1.48 µM).
To `Cc1cc(C)n2ncc(C(=O)NC(C3CC3)C(F)(F)F)c2n1` (stereo not shown) [III-9] belongs 18 µg/mL (≈ 57.6 µM); to `Cc1cc(C)n2ncc(C(=O)N[C@H](C3CC3)C(F)(F)F)c2n1` [III-10], 15.3 µg/mL (≈ 49 µM).
For the molecule `Cc1cc(C)n2ncc(C(=O)N[C@@H](C3CC3)C(F)(F)F)c2n1` [III-11], the solubility was 13.4 µg/mL (≈ 42.9 µM).
As to `Cc1cc(C)n2ncc(C(=O)NC3(C4CC4)CC3)c2n1` [III-12], the concentration in solution (solubility) was 38.4 µg/mL (≈ 142 µM).
As for `Cc1cc(C)n2ncc(C(=O)NC(C)(C)C3CC4(CCC4)C3)c2n1` [III-13], the solubility amounted to 0.3 µg/mL (≈ 0.919 µM).
With `Cc1cc(Cl)n2ncc(C(=O)NC(C)(C)C3CC3)c2n1` [III-14], the solubility was determined as 10.7 µg/mL (≈ 36.5 µM).
To `Cc1cc(Cl)nc2c(C(=O)NC(C)(C)C3CC3)cnn12` [III-15] belongs 14.1 µg/mL (≈ 48.2 µM).
The molecule `Cc1cc(-c2ccccn2)nc2c(C(=O)NC(C)(C)C3CC3)cnn12` [III-16] showed a solubility of 1.1 µg/mL (≈ 3.28 µM).
As for `Cc1cc(-c2ccccn2)n2ncc(C(=O)NC(C)(C)C3CC3)c2n1` [III-17], the concentration in solution (solubility) was 2.2 µg/mL (≈ 6.56 µM).
Molecule `Cc1cc(-c2cccnc2)nc2c(C(=O)NC(C)(C)C3CC3)cnn12` [III-18] came in with a solubility of 17.4 µg/mL (≈ 51.9 µM).
On to `Cc1cc(-c2cccnc2)n2ncc(C(=O)NC(C)(C)C3CC3)c2n1` [III-19], for which the concentration in solution (solubility) came to 5.3 µg/mL (≈ 15.8 µM).
To `Cc1cc(-c2ccncc2)nc2c(C(=O)NC(C)(C)C3CC3)cnn12` [III-20] belongs 6.3 µg/mL (≈ 18.8 µM); to `Cc1cc(-c2ccncc2)n2ncc(C(=O)NC(C)(C)C3CC3)c2n1` [III-21], 10 µg/mL (≈ 29.8 µM); to `Cc1cc(N2CCCCC2)n2ncc(C(=O)NC(C)(C)C3CC3)c2n1` [III-22], 0.5 µg/mL (≈ 1.46 µM).
Molecule `Cc1cc(N2CCCCC2)nc2c(C(=O)NC(C)(C)C3CC3)cnn12` [III-23] returned a solubility of 6.8 µg/mL (≈ 19.9 µM).
Then `Cc1cc(-c2ccccn2)n2ncc(C(=O)N[C@@H](C)C3CC3)c2n1` [III-25], with 22.5 µg/mL (≈ 70 µM).
Then `Cc1cc(-c2cccnc2)n2ncc(C(=O)N[C@@H](C)C3CC3)c2n1` [III-27], with 18 µg/mL (≈ 56 µM); and `Cc1cc(-c2ccncc2)nc2c(C(=O)NC(C)C3CC3)cnn12` (stereo not shown) [III-28], with 27.6 µg/mL (≈ 85.9 µM).
Then `Cc1cc(-c2ccncc2)n2ncc(C(=O)N[C@@H](C)C3CC3)c2n1` [III-29], with 18.9 µg/mL (≈ 58.8 µM).
`Cc1cc(N2CCCCC2)n2ncc(C(=O)N[C@@H](C)C3CC3)c2n1` [III-30]: the solubility is 4.7 µg/mL (≈ 14.4 µM).
In the case of `Cc1cc(N2CCCCC2)nc2c(C(=O)NC(C)C3CC3)cnn12` (stereo not shown) [III-31], the solubility amounted to 43.5 µg/mL (≈ 133 µM).
Molecule `Cc1cc(-c2ccc(F)cc2)nc2c(C(=O)N[C@@H](C)C3CC3)c(Cl)nn12` [III-32] gave a solubility of 0.1 µg/mL (≈ 0.268 µM).
To `Cc1cc(-c2ccc(F)cc2)n2nc(Cl)c(C(=O)N[C@@H](C)C3CC3)c2n1` [III-33] belongs 0.5 µg/mL (≈ 1.34 µM); to `Cc1cc(C)n2nc(Cl)c(C(=O)N[C@@H](C)C3CC3)c2n1` [III-34], 10.3 µg/mL (≈ 35.2 µM); to `Cc1cc(-c2cccnc2)nc2c(C(=O)NC(C3CC3)C(F)(F)F)cnn12` (stereo not shown) [III-35], 6.5 µg/mL (≈ 17.3 µM).
Then `Cc1cc(-c2ccccn2)nc2c(C(=O)NC(C3CC3)C(F)(F)F)cnn12` (stereo not shown) [III-36], with 0.4 µg/mL (≈ 1.07 µM).
